For orientation: IC50 means the concentration that gives 50% inhibition. As a reminder, the EC50 is the concentration needed to bring the measured effect to its halfway point. Low readings indicate an effect from little substance, high ones a need for much substance.

Like-named read-outs stand apart in the source and are kept apart here.

Data set [1] addresses T1, dopamine transporters (DAT) (Rattus norvegicus, UniProt P23977). Kind of data set: [3H]dopamine uptake inhibition in rat brain synaptosomes. The format is biochemical. Conditions: 5 nM [3H]dopamine, mean ± SD, n = 3, inactive = no inhibition at 10,000 nM; for IC50: [3H]DA uptake via DAT IC50, rat brain synaptosomes.
The target of data set [2] is T2, norepinephrine transporters (NET) (Rattus norvegicus, UniProt Q63380). Put plainly: [3H]norepinephrine uptake inhibition in rat brain synaptosomes. In kind it is biochemical.
T2 sequence (Q63380 1-617): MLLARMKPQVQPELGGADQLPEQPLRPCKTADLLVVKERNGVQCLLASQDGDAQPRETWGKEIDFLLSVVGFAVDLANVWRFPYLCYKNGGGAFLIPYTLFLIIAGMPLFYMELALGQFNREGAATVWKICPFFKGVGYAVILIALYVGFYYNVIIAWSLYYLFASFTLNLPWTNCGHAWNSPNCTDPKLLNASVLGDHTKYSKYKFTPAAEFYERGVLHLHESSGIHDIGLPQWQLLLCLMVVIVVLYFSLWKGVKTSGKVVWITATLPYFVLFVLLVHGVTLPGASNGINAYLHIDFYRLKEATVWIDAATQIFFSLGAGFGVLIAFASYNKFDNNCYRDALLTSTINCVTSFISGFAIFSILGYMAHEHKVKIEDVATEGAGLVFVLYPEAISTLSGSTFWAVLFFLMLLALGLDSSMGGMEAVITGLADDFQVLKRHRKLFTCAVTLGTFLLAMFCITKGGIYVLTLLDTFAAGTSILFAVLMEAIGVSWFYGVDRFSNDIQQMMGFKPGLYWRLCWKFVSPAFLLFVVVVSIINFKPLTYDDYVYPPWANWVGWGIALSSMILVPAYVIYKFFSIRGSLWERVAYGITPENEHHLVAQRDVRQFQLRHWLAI
In data set [3] the target is serotonin transporters (SERT) (Rattus norvegicus, UniProt P31652). Kind of data set: [3H]serotonin uptake inhibition in rat brain synaptosomes. The format is biochemical.
Chain of serotonin transporters (SERT) (P31652 whole entry): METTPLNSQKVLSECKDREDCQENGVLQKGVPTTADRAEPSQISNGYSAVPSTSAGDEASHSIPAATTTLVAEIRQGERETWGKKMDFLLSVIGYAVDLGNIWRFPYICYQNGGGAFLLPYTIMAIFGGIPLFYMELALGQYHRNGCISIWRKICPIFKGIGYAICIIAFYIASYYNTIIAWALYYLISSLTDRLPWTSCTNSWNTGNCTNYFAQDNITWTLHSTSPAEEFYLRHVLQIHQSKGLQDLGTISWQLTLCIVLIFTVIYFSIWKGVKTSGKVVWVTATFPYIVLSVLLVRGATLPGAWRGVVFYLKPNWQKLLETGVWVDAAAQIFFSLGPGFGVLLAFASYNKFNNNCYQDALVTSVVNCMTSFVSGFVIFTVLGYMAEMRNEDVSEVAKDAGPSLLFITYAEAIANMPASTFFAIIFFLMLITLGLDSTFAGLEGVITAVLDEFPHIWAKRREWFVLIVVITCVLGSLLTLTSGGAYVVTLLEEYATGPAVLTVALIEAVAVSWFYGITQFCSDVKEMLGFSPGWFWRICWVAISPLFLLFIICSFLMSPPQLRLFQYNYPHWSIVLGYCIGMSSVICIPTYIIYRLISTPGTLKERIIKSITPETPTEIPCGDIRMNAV
Data set [4] addresses T1, dopamine transporters (DAT). Kind of data set: [3H]MPP+ release via DAT from rat brain synaptosomes. In kind it is biochemical. As to conditions: for [3H]MPP+ release via DAT EC50: rat brain synaptosomes, 9 nM [3H]MPP+, mean ± SD, n = 3, inactive = efficacy less than 33% of maximal release.
The target of data set [5] is T2, norepinephrine transporters (NET). Put plainly: [3H]MPP+ release via NET from rat brain synaptosomes. The format is biochemical. Conditions: for [3H]MPP+ release via NET EC50: rat brain synaptosomes, 9 nM [3H]MPP+, mean ± SD, n = 3, inactive = efficacy less than 33% of maximal release.
A further data set addresses 5-HT transporters (SERT) (Rattus norvegicus, UniProt P31652). Kind of data set: [3H]5-HT release via SERT from rat brain synaptosomes. The format is biochemical.
Data set [6] can be described thus: Stability of N-methoxymephedrone. In kind it is physicochemical. Conditions: solid; over time converts from a colourless solid to a brown solid; hygroscopic.
Setting [7] is: [3H]5-HT release via SERT EC50, rat brain synaptosomes, 5 nM [3H]5-HT, mean ± SD, n = 3, inactive = efficacy less than 33% of maximal release.
The mark [8] stands for this setting: ratio of uptake IC50 values versus mexedrone.

Chain of 5-HT transporters (SERT) (P31652 whole entry): as above
T1 sequence (P23977 whole entry): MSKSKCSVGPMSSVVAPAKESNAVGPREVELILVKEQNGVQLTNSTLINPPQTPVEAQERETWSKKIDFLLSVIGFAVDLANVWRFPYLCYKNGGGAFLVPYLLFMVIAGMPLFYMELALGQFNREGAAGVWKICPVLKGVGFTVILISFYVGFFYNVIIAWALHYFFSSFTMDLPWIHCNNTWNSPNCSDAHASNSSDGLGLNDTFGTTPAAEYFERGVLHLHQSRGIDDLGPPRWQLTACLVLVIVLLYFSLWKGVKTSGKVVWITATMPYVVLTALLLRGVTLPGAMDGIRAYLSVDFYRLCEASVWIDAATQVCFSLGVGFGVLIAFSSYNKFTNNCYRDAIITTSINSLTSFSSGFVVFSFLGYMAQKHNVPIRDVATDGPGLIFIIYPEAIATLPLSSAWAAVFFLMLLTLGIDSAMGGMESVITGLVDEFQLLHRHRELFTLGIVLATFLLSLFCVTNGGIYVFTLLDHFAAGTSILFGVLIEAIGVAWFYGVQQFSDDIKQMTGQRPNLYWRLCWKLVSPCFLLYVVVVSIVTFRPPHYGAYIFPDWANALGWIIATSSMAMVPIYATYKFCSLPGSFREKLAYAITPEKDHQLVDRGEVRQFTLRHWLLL

On to `CNC(C)C(=O)c1ccc(C)cc1` (stereo not shown) [Mephedrone, 2-(methylamino)-1-(4-methylphenyl)propan-1-one, reference compound], for which the IC50 in data set [1] stood at 1.06 ± 0.085 µM; in data set [2] it was 0.494 ± 0.093 µM; in data set [3], 0.47 ± 0.0076 µM. Also, the EC50 is 0.045 ± 0.006 µM in data set [4], 0.058 ± 0.007 µM in data set [5] and 0.163 ± 0.03 µM at 5-HT transporters (SERT) (setting [7]).

For the compound `CNC(COC)C(=O)c1ccc(C)cc1` (stereo not shown) [Mexedrone, 3-Methoxy-2-(methylamino)-1-(4-methylphenyl)propan-1-one], the figures for the IC50 in data set [1], in data set [2] and in data set [3] were 6.84 ± 1.52 µM, 8.87 ± 3.1 µM and 5.29 ± 1.62 µM, respectively. Moreover, the “[3H]MPP+ release via DAT EC50” value in data set [4] is “inactive”. In data set [5], the “[3H]MPP+ release via NET EC50” value was “inactive”. For the same compound, the half-maximal effective concentration (EC50) on 5-HT transporters (SERT) (setting [7]) came to 2.52 ± 0.56 µM; on 5-HT transporters (SERT) (releasing activity at SERT EC50, rat brain synaptosomes) it was 2.5 µM.

In the case of `CON(C)C(C)C(=O)c1ccc(C)cc1` (stereo not shown) [N-Methoxymephedrone, 2-(Methoxy(methyl)amino)-1-(4-methylphenyl)propan-1-one], the results for the half-inhibitory concentration (IC50) in data set [1], in data set [2] and in data set [3] were 6.09 ± 1.62 µM, 3.46 ± 0.728 µM and 3.33 ± 1.13 µM, respectively. The “fold more potent than mexedrone at NET (uptake inhibition)” value in data set [2] (setting [8]) is given as 2.6 fold. In data set [3] (setting [8]), the “fold more potent than mexedrone at SERT (uptake inhibition)” value is on record as 1.6 fold. Besides, the 50% effective concentration (EC50) in data set [4] was found to be 0.666 ± 0.132 µM; in data set [5], 0.313 ± 0.051 µM; on 5-HT transporters (SERT), 1.04 ± 0.271 µM. In addition, the “stability in crystalline form” value in data set [6] was “unstable”.

As for `CNC(CCl)C(=O)c1ccc(C)cc1` (stereo not drawn) [α-Chloromethylmephedrone, 3-chloro-2-(methylamino)-1-(4-methylphenyl)propan-1-one], the “[3H]DA uptake via DAT IC50” value in data set [1] (rat brain synaptosomes) is “inactive”. In data set [2] (rat brain synaptosomes, 10 nM [3H]norepinephrine, mean ± SD, n = 3, inactive = no inhibition at 10,000 nM), the “[3H]NE uptake via NET IC50” value is “inactive”. Further, the “[3H]5-HT uptake via SERT IC50” value in data set [3] (rat brain synaptosomes, 5 nM [3H]serotonin, mean ± SD, n = 3, inactive = no inhibition at 10,000 nM) is “inactive”. In addition, the “[3H]MPP+ release via DAT EC50” value in data set [4] is “inactive”. Further, the “[3H]MPP+ release via NET EC50” value in data set [5] was “inactive”. Besides, the “[3H]5-HT release via SERT EC50” value on 5-HT transporters (SERT) (rat brain synaptosomes, 5 nM [3H]5-HT, mean ± SD, n = 3, inactive = efficacy less than 33% of maximal release) is “inactive”.

The values above are taken from paper PMC5336524 (Drug testing and analysis, 2016).
